Consider two compounds from US6903130B1, “Pyrrolidineacetamide derivative alone or in combination for treatment of cns disorders” (UCB S.A., priority 1999, dated 2005).

In data set [1] the test system is sound-sensitive mice. The experiment in a line: Rotarod test in sound-sensitive mice. In general terms: In the rotarod test animals must keep their balance on a rotating rod.
For data set [2], the system named is rats with hyperactivity induced by a mixture of dexamphetamine-chlordiazepoxide. The experiment in a line: Y-maze test, DEX-CDP hyperactivity, levetiracetam and valproate alone or combined (Example 6). In kind it is in vivo, rat. The conditions noted are these: median (Q1-Q3). From the text:
The purpose of the present experiment was to study the effects of levetiracetam administered alone or in combination with valproate on the hyperactivity induced in rats by a mixture of dexamphetamine-chlordiazepoxide (DEX-CDP) evaluated in a Y-shaped maze apparatus, a test recognized as a model for mania. Increased motor activity is a frequent symptom of manic disorders and, therefore, is often used as a model of mania in laboratory animals. Lithium, a medicine approved by the FDA in the prophylaxis and the treatment of bipolar disorders and mania, and valproate, indicated for the treatment of manic episodes associated with bipolar disorders, have been shown active in this model of mania (Vale A. L. & Ratcliffe F., Psychopharmacol. (1987), 91, 352-355; Cao B. J. & Peng N. A., Eur. J. Pharmacol. (1993), 237, 177-181).
Hyperactivity was induced in male Sprague Dawley rats weighing 210-290 g (n 13 or 15 per group) by a mixture of dexamphetamine-chlordiazepoxide as described by Vale A. L. (Vale A. L. & Ratcliffe F., Psychopharmacol. (1987), 91, 352-355). […]
Each rat was placed in the center of the Y-maze (with each arm 40 cm long and 15 cm wide with 35 cm walls) constructed in gray plexiglas. The number of visits into the arms was recorded over a 5 minutes period as an index of activity.
The results were expressed as median with the first and third quartile. […]

The subject of data set [3] is amygdala-kindled rats. In words: Protection against secondarily generalized motor seizures in amygdala-kindled rats. In kind it is in vivo, rat. The conditions noted are these: for ED50: Rattus norvegicus, ip, read-out: ED50, protection against secondarily generalized motor seizures. From the text:
The purpose of this study was to evaluate the pharmacodynamic interaction between valproate levetiracetam in preventing secondarily generalized motor seizures in amygdala-kindled rats, a model that has repeatedly been proposed to reflect complex partial seizures with secondarily generalization in man ([…]. & al., Exp. Neurol. […] McNamara J. O., Ann. of Neurol. (1984), 16 (suppl.), […]-[…]). In this model, focal electrical kindling of amygdala in rats induces the development of electrical seizure activity ([…] amygdala and behavioral seizures, generally evolving through facial clonus, head nodding, forelimb clonus, rearing and fully kindled seizures with rearing and falling accompanied by generalized clonic seizures (Racine R. J., Electroencephalogr. Clin. Neurophysiol. (1972), 32, 281-294). […] Neurol. […] Two days later, drugs were tested. The behavioral effect of stimulation was graded according to the score of Racine (Racine R. J., Electroencephalogr. Clin. Neurophysiol. (1972), 32, 281-294).

The test system of data set [4] is amygdala-kindled rats. The experiment in a line: Rotarod test in amygdala-kindled rats. Here is the method: Levetiracetam and valproate, in a dose-volume of 5 ml/kg body weight, were administered intraperitoneally 60 and 30 minutes, respectively, before the induction of kindling or the measurement of rotarod performance. Levetiracetam ([…]) and sodium valproate (50, 100, 150, 200 and 300 mg/kg) were both dissolved in 0.9% NaCl to give solutions of pH 5.9 and 6.3, respectively. Control rats received an equivalent dose-volume of the appropriate vehicle.
The amygdala-kindled rats (n=8) were also tested on a rotating rod. The animals were pretreated with i.p. administrations of levetiracetam and valproate 60 and 30 minutes, respectively, before testing, Only animals that were unable to remain on the rod after three subsequent 1-minute attempts were considered as having an impaired performance. Results were analyzed as described in example 1.

Structures are written as SMILES. Like-named read-outs stand apart in the source and are kept apart here.

As a reminder, the ED50 is the dose that gives a 50% effect, or the effect in half of the subjects.

Regarding `CC[C@@H](C(N)=O)N1CCCC1=O` [Levetiracetam, (S)-(−)α-ethyl-2-oxo-1-pyrrolidineacetamide], the “ED50 (TD50), impairment of rotarod performance” value in data set [1] (compound alone, i.p., sound-sensitive mice) came out at 360.7 mg/kg. Besides, the “animals showing an impairment of the rotarod performance” value in data set [1] (levetiracetam 5.5 mg/kg i.p. alone, inferred from dose-response relation) amounted to 4%. Also, the “Number of arms visited” value in data set [2] (levetiracetam 17 mg/kg i.p. + DEX-CDP mixture) is recorded as 46 (41-49). The ED50 in data set [3] is 307 mg/kg. Further, the entries for the “Calculated proportion of animals protected” value in data set [3] (levetiracetam 17 mg/kg alone), in data set [3] (levetiracetam 54 mg/kg alone) and in data set [3] (levetiracetam 108 mg/kg alone) were 7%, 18% and 28.5%, respectively. In data set [4] (levetiracetam alone 108, 170 and 540 mg/kg i.p.), the “impairment of rotarod performance (in words)” value was “None of the three doses of levetiracetam tested (108, 170 and 540 mg/kg) impaired the performance”.

`CCCC(CCC)C(=O)[O-].[Na+]` [Valproate, sodium valproate]: the “Impairment in the performance within the rotarod test” value is 30% in data set [1] (valproate 122 mg/kg + saline (treatment protecting 50% of the mice)) and 46% in data set [4] (valproate 197 mg/kg + saline (treatment protecting 50% of the rats)). The “Number of arms visited” value in data set [2] (valproate 150 mg/kg i.p. + DEX-CDP mixture) is listed as 41 (18-49). Also, the ED50 in data set [3] (compound alone, i.p., LOGIT-LOG DOSE regression) is 197 mg/kg.
